The structures appear in SMILES notation.

In this experiment the test system is RKO p21 uninduced (proliferating) colon adenocarcinoma cells. The experiment is described as follows: Alamar Blue cell viability assay, RKO p21 uninduced (proliferating). It is filed as cell-based. The settings on record: Homo sapiens, Table B3, anti-proliferative/cytotoxic activity, 72 hours, read-out: −log EC50 RKO p21 uninduced (proliferating) (converted). How it is done:
The anti-proliferative/cytotoxic activity of the compounds described herein can be tested on subclones of RKO human colon adenocarcinoma cells (Schmidt et al., Oncogene 19, 2423-2429; 2000) using the Alamar Blue cell viability assay (described in O'Brien et al. Eur J Biochem 267, 5421-5426, 2000). The compounds are dissolved as 10 mM solutions in DMSO and subsequently diluted in semi-logarithmic steps. DMSO dilutions are further diluted 1:100 into Dulbecco's modified Eagle's medium (DMEM) containing 10% fetal calf serum to a final concentration twice as much as the final concentration in the test. RKO subclones are seeded into 96 well flat bottom plates at a density of 4000 cells per well in a volume of 50 μl per well. 24 hours after seeding the 50 μl each of the compound dilutions in DMEM medium are added into each well of the 96 well plate. Each compound dilution is tested as triplicates. Wells containing untreated control cells are filled with 50 μl DMEM medium containing 1% DMSO. The cells are then incubated with the substances for 72 hours at 37° C. in a humidified atmosphere containing 5% carbon dioxide. To determine the viability of the cells, 10 μl of an Alamar Blue solution (Biosource) are added and the fluorescence is measured at an extinction of 544 nm and an emission of 590 nm. For the calculation of the cell viability the emission value from untreated cells is set as 100% viability and the emission rates of treated cells are set in relation to the values of untreated cells. Viabilities are expressed as % values. The Graphpad Prism program is used for the calculation of EC50 values for anti-proliferative/cytotoxic activity out of the obtained dose-response curves.
To determine the cell cycle specific mode of action, subclones of RKO colon adenocarcinoma cells (RKOp21 or RKOp27 as described by Schmidt et al. in Oncogene 19, 2423-2429; 2000) are seeded into 96 well flat bottom plates at a density of 16000 cells per well in a volume of 50 μl per well in DMEM growth medium with 10% FCS containing 10 μM Ponasterone A. 24 hours after seeding the 50 μl each of the compound dilutions in DMEM medium are added into each well of the 96-well plate. Each compound dilution is tested as triplicates. Wells containing untreated control cells are filled with 50 μl DMEM medium containing 1% DMSO. The cells are then incubated with the substances for 72 hours at 37° C. in a humidified atmosphere containing 5% carbon dioxide. To determine the viability of the cells, 10 μl of an Alamar Blue solution (Biosource) are added and the fluorescence is measured at an extinction of 544 nm and an emission of 590 nm. For the calculation of the cell viability the emission value from untreated cells is set as 100% viability and the emission rates of treated cells are set in relation to the values of untreated cells. Viabilities are expressed as % values. The Graphpad Prism program (GraphPad Software, Inc) is used for the calculation of EC50 values out of the obtained dose-response curves. Viability is compared of proliferating cells grown in the absence of the inducer Ponasterone A, versus viability of cells arrested by the expression of ectopic p27Kip1 induced by Ponasterone A.
Representative values for anti-proliferation/cytotoxicity [measured as −log EC50 (mol/l)] determined in the aforementioned assays follow from the following tables B1, B2 and B3, in which the numbers of the compounds correspond to the numbers of the examples.
On to `C=CCNCCN1C(=O)N2[C@H](c3cccc(O)c3)c3[nH]c4cc(F)c(OC)cc4c3C[C@@]2(C)C1=O` (racemic) [Example 254, (3aSR,10RS)-2-(2-Allylamino-ethyl)-7-fluoro-10-(3-hydroxy-phenyl)-6-methoxy-3a-methyl-3a,4,9,10-tetrahydro-2,9,10a-triaza-cyclopenta[b]fluorene-1,3-dione], for which the EC50 was 39.8 to 251 nM.
Take `COCCNCCCN1C(=O)N2[C@H](c3cccc(O)c3)c3[nH]c4ccc(Cl)cc4c3C[C@@]2(C)C1=O` (racemic) [Example 185, (3aSR,10RS)-6-Chloro-10-(3-hydroxy-phenyl)-2-[3-(2-methoxy-ethylamino)-propyl]-3a-methyl-3a,4,9,10-tetrahydro-2,9,10a-triaza-cyclopenta[b]fluorene-1,3-dione]: the EC50 was no more than 39.8 nM.
As to `CCOc1ccc2[nH]c3c(c2c1)C[C@@]1(C)C(=O)N(CCCN2CCC(C)CC2)C(=O)N1[C@@H]3c1cccc(O)c1` (racemic) [Example 224, (3aSR,10RS)-6-Ethoxy-10-(3-hydroxy-phenyl)-3a-methyl-2-[3-(4-methyl-piperidin-1-yl)-propyl]-3a,4,9,10-tetrahydro-2,9,10a-triaza-cyclopenta[b]fluorene-1,3-dione], the EC50 is 39.8 to 251 nM.
Consider `CC(C)NCCCN1C(=O)N2[C@H](c3cccc(O)c3)c3[nH]c4ccc(Cl)cc4c3C[C@@]2(C)C1=O` (racemic) [Example 392, (3aSR,10RS)-6-Chloro-10-(3-hydroxy-phenyl)-2-(3-isopropylamino-propyl)-3a-methyl-3a,4,9,10-tetrahydro-2,9,10a-triaza-cyclopenta[b]fluorene-1,3-dione], for which the EC50 was no more than 39.8 nM.
Consider `CCOc1ccc2[nH]c3c(c2c1)C[C@@]1(C)C(=O)N(CCCN(CC)CCOC)C(=O)N1[C@@H]3c1cccc(O)c1` (racemic) [Example 195, (3aSR,10RS)-6-Ethoxy-2-{3-[ethyl-(2-methoxy-ethyl)-amino]-propyl}-10-(3-hydroxy-phenyl)-3a-methyl-3a,4,9,10-tetrahydro-2,9,10a-triaza-cyclopenta[b]fluorene-1,3-dione], for which the EC50 is 39.8 to 251 nM.
`CCN(CC)CCCN1C(=O)N2[C@H](c3cccc(O)c3)c3[nH]c4ccc(OC(F)F)cc4c3C[C@@]2(C)C1=O` (racemic) [Example 176, (3aSR,10RS)-2-(3-Diethylamino-propyl)-6-(1,1-difluoro-methoxy)-10-(3-hydroxy-phenyl)-3a-methyl-3a,4,9,10-tetrahydro-2,9,10a-triaza-cyclopenta[b]fluorene-1,3-dione]: the EC50 was no more than 39.8 nM.
To `CCN(CCO)CCCN1C(=O)N2[C@H](c3cccc(O)c3)c3[nH]c4ccc(OC(F)F)cc4c3C[C@@]2(C)C1=O` (racemic) [Example 177, (3aSR,10RS)-6-(1,1-Difluoro-methoxy)-2-{3-[ethyl-(2-hydroxy-ethyl)-amino]-propyl}-10-(3-hydroxy-phenyl)-3a-methyl-3a,4,9,10-tetrahydro-2,9,10a-triaza-cyclopenta[b]fluorene-1,3-dione] belongs no more than 39.8 nM; to `C[C@@]12Cc3c([nH]c4ccc(OC(F)F)cc34)[C@@H](c3cccc(O)c3)N1C(=O)N(CCN1CCCC1)C2=O` (racemic) [Example 279, (3aSR,10RS)-6-(1,1-Difluoro-methoxy)-10-(3-hydroxy-phenyl)-3a-methyl-2-(2-pyrrolidin-1-yl-ethyl)-3a,4,9,10-tetrahydro-2,9,10a-triaza-cyclopenta[b]fluorene-1,3-dione], no more than 39.8 nM; to `CC(C)N(C)CCN1C(=O)N2[C@H](c3cccc(O)c3)c3[nH]c4ccc(OC(F)F)cc4c3C[C@@]2(C)C1=O` (racemic) [Example 278, (3aSR,10RS)-6-(1,1-Difluoro-methoxy)-10-(3-hydroxy-phenyl)-2-[2-(isopropyl-methyl-amino)-ethyl]-3a-methyl-3a,4,9,10-tetrahydro-2,9,10a-triaza-cyclopenta[b]fluorene-1,3-dione], no more than 39.8 nM.
Turning to `CCOc1ccc2[nH]c3c(c2c1)C[C@@]1(C)C(=O)N(CCNC2CCC2)C(=O)N1[C@@H]3c1cccc(O)c1` (racemic) [Example 155, (3aSR,10RS)-2-(2-Cyclobutylamino-ethyl)-6-ethoxy-10-(3-hydroxy-phenyl)-3a-methyl-3a,4,9,10-tetrahydro-2,9,10a-triaza-cyclopenta[b]fluorene-1,3-dione], the EC50 is no more than 39.8 nM.
Consider `COc1cc2c3c([nH]c2cc1F)[C@@H](c1cccc(O)c1)N1C(=O)N(CCCNCC2CC2)C(=O)[C@]1(C)C3` (racemic) [Example 304, (3aSR,10RS)-2-[3-(Cyclopropylmethyl-amino)-propyl]-7-fluoro-10-(3-hydroyx-phenyl)-6-methoxy-3a-methyl-3a,4,9,10-tetrahydro-2,9,10a-triaza-cyclopenta[b]fluorene-1,3-dione], for which the EC50 is 39.8 to 251 nM.
As for `CCN(CCO)CCCN1C(=O)N2[C@H](c3cccc(O)c3)c3[nH]c4ccc(Br)cc4c3C[C@@]2(C)C1=O` (racemic) [Example 231, (3aSR,10RS)-6-Bromo-2-{3-[ethyl-(2-hydroxy-ethyl)-amino]-propyl}-10-(3-hydroyx-phenyl)-3a-methyl-3a,4,9,10-tetrahydro-2,9,10a-triaza-cyclopenta[b]fluorene-1,3-dione], the EC50 is no more than 39.8 nM.
With `CCOc1ccc2[nH]c3c(c2c1)C[C@@]1(C)C(=O)N(CCN(C)C(C)C)C(=O)N1[C@@H]3c1cccc(O)c1` (racemic) [Example 163, (3aSR,10RS)-6-Ethoxy-10-(3-hydroxy-phenyl)-2-[2-(isopropyl-methyl-amino)-ethyl]-3a-methyl-3a,4,9,10-tetrahydro-2,9,10a-triaza-cyclopenta[b]fluorene-1,3-dione], the EC50 was no more than 39.8 nM.
In the case of `C=CCNCCCN1C(=O)N2[C@H](c3cccc(O)c3)c3[nH]c4cc(F)c(OC)cc4c3C[C@@]2(C)C1=O` (racemic) [Example 334, (3aSR,10RS)-2-(3-Allylamino-propyl)-7-fluoro-10-(3-hydroxy-phenyl)-6-methoxy-3a-methyl-3a,4,9,10-tetrahydro-2,9,10a-triaza-cyclopenta[b]fluorene-1,3-dione] it was 39.8 to 251 nM; in that of `CNCCCN1C(=O)N2[C@H](c3cccc(O)c3)c3[nH]c4cc(F)c(OC)cc4c3C[C@@]2(C)C1=O` (racemic) [Example 303, (3aSR,10RS)-7-Fluoro-10-(3-hydroxy-phenyl)-6-methoxy-3a-methyl-2-(3-methylamino-propyl)-3a,4,9,10-tetrahydro-2,9,10a-triaza-cyclopenta[b]fluorene-1,3-dione], 39.8 to 251 nM.
As to `C[C@@]12Cc3c([nH]c4ccc(OC(F)F)cc34)[C@@H](c3cccc(O)c3)N1C(=O)N(CCCNC1CC1)C2=O` (racemic) [Example 202, (3aSR,10RS)-2-(3-Cyclopropylamino-propyl)-6-(1,1-difluoro-methoxy)-10-(3-hydroxy-phenyl)-3a-methyl-3a,4,9,10-tetrahydro-2,9,10a-triaza-cyclopenta[b]fluorene-1,3-dione], the EC50 was 39.8 to 251 nM.
Consider `CC(C)(C)NCCCN1C(=O)N2[C@H](c3cccc(O)c3)c3[nH]c4ccc(OC(F)F)cc4c3C[C@@]2(C)C1=O` (racemic) [Example 182, (3aSR,10RS)-2-(3-tert-Butylamino-propyl)-6-(1,1-difluoro-methoxy)-10-(3-hydroxy-phenyl)-3a-methyl-3a,4,9,10-tetrahydro-2,9,10a-triaza-cyclopenta[b]fluorene-1,3-dione], for which the EC50 was no more than 39.8 nM.

Source of the values: patent US8530493B2, “Indolopyridines as Eg5 kinesin modulators” (4SC AG, priority 2006, dated 2013).
